Literature values, collected in patent US20100317666A1, “Composition Comprising An NK-1 Receptor Antagonist And An SSRI For The Treatment Of Tinnitus And Hearing Loss” (Glaxo Group Limited, priority 2006, published 2010).

Tests used:
[1] = 8-12 weeks treatment; high dose (up to 50 mg/day)
[2] = iv infusion; transient effect

| SMILES | effects on tinnitus [1] | subject responding with tinnitus partial or complete inhibition [2] |
| --- | --- | --- |
| Fc1ccc([C@@H]2CCNC[C@H]2COc2ccc3c(c2)OCO3)cc1 (relative stereo) [paroxetine, trans-(−)-3-[(1,3-benzodioxol-5-yloxy)methyl]-4-(4-fluorophenyl)piperidine] | Modest effects |  |
| CCN(CC)CC(=O)Nc1c(C)cccc1C [lidocaine] |  | up to 60% |
